# Assay results: ChEMBL document CHEMBL1201862, “PubChem BioAssay data set” (2004)
#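 96-well plates; 48 h exposure; 5 concentrations. Endpoints by linear interpolation between flanking doses. Not reached: highest tested concentration assigned. The concentration for 50% growth inhibition is given as GI50.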 The source made the active and inactive calls. Rule as the data show it: active = GI50 up to about 1.1 µM and inactive = higher.
# Experiments:
# Assay in all cases: NCI-60 cell line screen, 48 h
# SNB-19 = test system: SNB-19
# MCF7 = test system: MCF7
# RPMI-8226 = test system: RPMI-8226
# HCT-15 = test system: HCT-15
# K562 = test system: K562
# MDA-N = test system: MDA-N
# NCI-H522 = test system: NCI-H522
# PC-3 = test system: PC-3
# IGROV-1 = test system: IGROV-1
# BT-549 = test system: BT-549
# M14 = test system: M14
# HOP-62 = test system: HOP-62
# COLO 205 = test system: COLO 205
# MDA-MB-435 = test system: MDA-MB-435
# KM12 = test system: KM12
# HL-60 = test system: HL-60
# RXF 393 = test system: RXF 393
# HCC 2998 = test system: HCC 2998
# SN12C = test system: SN12C
# NCI/ADR-RES = test system: NCI/ADR-RES
# U-251 = test system: U-251
# OVCAR-5 = test system: OVCAR-5
# HOP-92 = test system: HOP-92
# 786-0 = test system: 786-0
# SF-295 = test system: SF-295
# ACHN = test system: ACHN
# OVCAR-8 = test system: OVCAR-8
# NCI-H23 = test system: NCI-H23
# MDA-MB-231 = test system: MDA-MB-231
# HT-29 = test system: HT-29
# SW-620 = test system: SW-620
# DU-145 = test system: DU-145
# UACC-257 = test system: UACC-257
# T47D = test system: T47D
# SK-MEL-2 = test system: SK-MEL-2
# EKVX = test system: EKVX
# TK-10 = test system: TK-10
# SF-268 = test system: SF-268
# SF-539 = test system: SF-539
# SR = test system: SR
# SK-OV-3 = test system: SK-OV-3
# CCRF-CEM = test system: CCRF-CEM
# LOX IMVI = test system: LOX IMVI
# SK-MEL-5 = test system: SK-MEL-5
# UO-31 = test system: UO-31
# OVCAR-4 = test system: OVCAR-4
# NCI-H226 = test system: NCI-H226
# NCI-H460 = test system: NCI-H460
# OVCAR-3 = test system: OVCAR-3
# Hs-578T = test system: Hs-578T
# MOLT-4 = test system: MOLT-4
# A549 = test system: A549
# CAKI-1 = test system: CAKI-1
# UACC-62 = test system: UACC-62
# HCT-116 = test system: HCT-116
# Malme-3M = test system: Malme-3M
# SK-MEL-28 = test system: SK-MEL-28
# SNB-75 = test system: SNB-75
structure (smiles),measurement,setting,value
NC(=O)C(=CNC(=S)c1ccncc1)C(N)=O,GI50,SNB-19,> 100 µM (inactive)
same,GI50,MCF7,> 100 µM (inactive)
same,GI50,RPMI-8226,> 100 µM (inactive)
same,GI50,HCT-15,> 100 µM
same,GI50,K562,> 100 µM (inactive)
same,GI50,MDA-N,> 100 µM (inactive)
same,GI50,NCI-H522,> 100 µM (inactive)
same,GI50,PC-3,> 100 µM (inactive)
same,GI50,IGROV-1,> 100 µM (inactive)
same,GI50,BT-549,> 100 µM (inactive)
same,GI50,M14,> 100 µM (inactive)
same,GI50,HOP-62,> 100 µM (inactive)
same,GI50,COLO 205,> 100 µM (inactive)
same,GI50,MDA-MB-435,> 100 µM (inactive)
same,GI50,KM12,> 100 µM (inactive)
same,GI50,HL-60,> 100 µM (inactive)
same,GI50,RXF 393,> 100 µM (inactive)
same,GI50,HCC 2998,> 100 µM (inactive)
same,GI50,SN12C,> 100 µM (inactive)
same,GI50,NCI/ADR-RES,> 100 µM (inactive)
same,GI50,U-251,> 100 µM (inactive)
same,GI50,OVCAR-5,> 100 µM (inactive)
same,GI50,HOP-92,> 100 µM (inactive)
same,GI50,786-0,> 100 µM (inactive)
same,GI50,SF-295,> 100 µM (inactive)
same,GI50,ACHN,> 100 µM (inactive)
same,GI50,OVCAR-8,> 100 µM (inactive)
same,GI50,NCI-H23,> 100 µM (inactive)
same,GI50,MDA-MB-231,> 100 µM (inactive)
same,GI50,HT-29,> 100 µM (inactive)
same,GI50,SW-620,> 100 µM (inactive)
same,GI50,DU-145,> 100 µM (inactive)
same,GI50,UACC-257,> 100 µM (inactive)
same,GI50,T47D,> 100 µM (inactive)
same,GI50,SK-MEL-2,> 100 µM (inactive)
same,GI50,EKVX,> 100 µM (inactive)
same,GI50,TK-10,> 100 µM (inactive)
same,GI50,SF-268,> 100 µM (inactive)
same,GI50,SF-539,> 100 µM (inactive)
same,GI50,SR,> 100 µM (inactive)
same,GI50,SK-OV-3,> 100 µM (inactive)
same,GI50,CCRF-CEM,> 100 µM (inactive)
same,GI50,LOX IMVI,> 100 µM (inactive)
same,GI50,SK-MEL-5,> 100 µM (inactive)
same,GI50,UO-31,> 100 µM (inactive)
same,GI50,OVCAR-4,> 100 µM (inactive)
same,GI50,NCI-H226,> 100 µM (inactive)
same,GI50,NCI-H460,> 100 µM (inactive)
same,GI50,OVCAR-3,> 100 µM (inactive)
same,GI50,Hs-578T,> 100 µM (inactive)
same,GI50,MOLT-4,> 100 µM (inactive)
same,GI50,A549,> 100 µM (inactive)
same,GI50,CAKI-1,> 100 µM (inactive)
same,GI50,UACC-62,> 100 µM (inactive)
same,GI50,HCT-116,> 100 µM (inactive)
CC(=O)N(CC(=O)C(=O)NNc1ccoc1)c1ccc(Cl)cc1,GI50,SNB-19,> 100 µM (inactive)
same,GI50,MCF7,50.5 µM (inactive)
same,GI50,Malme-3M,> 100 µM (inactive)
same,GI50,RPMI-8226,> 100 µM (inactive)
same,GI50,HCT-15,50.5 µM
same,GI50,K562,91.4 µM (inactive)
same,GI50,MDA-N,> 100 µM (inactive)
same,GI50,NCI-H522,> 100 µM (inactive)
same,GI50,PC-3,> 100 µM (inactive)
same,GI50,IGROV-1,> 100 µM (inactive)
same,GI50,BT-549,> 100 µM (inactive)
same,GI50,M14,> 100 µM (inactive)
same,GI50,HOP-62,> 100 µM (inactive)
same,GI50,COLO 205,> 100 µM (inactive)
same,GI50,MDA-MB-435,> 100 µM (inactive)
same,GI50,KM12,> 100 µM (inactive)
same,GI50,RXF 393,> 100 µM (inactive)
same,GI50,HCC 2998,> 100 µM (inactive)
same,GI50,SN12C,> 100 µM (inactive)
same,GI50,NCI/ADR-RES,> 100 µM (inactive)
same,GI50,U-251,> 100 µM (inactive)
same,GI50,OVCAR-5,> 100 µM (inactive)
same,GI50,HOP-92,> 100 µM (inactive)
same,GI50,786-0,94 µM (inactive)
same,GI50,SF-295,> 100 µM (inactive)
same,GI50,ACHN,37.8 µM (inactive)
same,GI50,OVCAR-8,> 100 µM (inactive)
same,GI50,NCI-H23,> 100 µM (inactive)
same,GI50,MDA-MB-231,> 100 µM (inactive)
same,GI50,HT-29,> 100 µM (inactive)
same,GI50,SW-620,> 100 µM (inactive)
same,GI50,DU-145,87.3 µM (inactive)
same,GI50,UACC-257,> 100 µM (inactive)
same,GI50,SK-MEL-28,> 100 µM (inactive)
same,GI50,T47D,> 100 µM (inactive)
same,GI50,SK-MEL-2,> 100 µM (inactive)
same,GI50,EKVX,> 100 µM (inactive)
same,GI50,TK-10,> 100 µM (inactive)
same,GI50,SF-268,> 100 µM (inactive)
same,GI50,SF-539,> 100 µM (inactive)
same,GI50,SR,79.4 µM (inactive)
same,GI50,SK-OV-3,> 100 µM (inactive)
same,GI50,CCRF-CEM,31.9 µM (inactive)
same,GI50,LOX IMVI,> 100 µM (inactive)
same,GI50,SK-MEL-5,> 100 µM (inactive)
same,GI50,UO-31,77.1 µM (inactive)
same,GI50,OVCAR-4,> 100 µM (inactive)
same,GI50,NCI-H226,> 100 µM (inactive)
same,GI50,NCI-H460,> 100 µM (inactive)
same,GI50,OVCAR-3,> 100 µM (inactive)
same,GI50,Hs-578T,> 100 µM (inactive)
same,GI50,MOLT-4,> 100 µM (inactive)
same,GI50,A549,> 100 µM (inactive)
same,GI50,CAKI-1,> 100 µM (inactive)
same,GI50,SNB-75,> 100 µM (inactive)
same,GI50,HCT-116,> 100 µM (inactive)
